The source of these data is patent US11912693B2, “Compounds for modulating S1P1 activity and methods of using the same” (TREVENA, INC., priority 2017, dated 2024).

The target of test [1] is T1, human sphingosine-1-phosphate receptor 1 (S1P1) (Homo sapiens (Human), UniProt P21453). As to the kind of experiment: Inhibition of cAMP production (HTRF cAMP HiRange), S1P1 CHO-K1 cells. The class given is cell-based. The settings on record: for Emax: CHO-K1, efficacy (SPAN) normalized to fingolimod, read-out: hS1P1 cAMP SPAN; for hS1P1 cAMP pEC50: inhibition of cAMP production, S1P1 CHO-K1 cells. An outline of the steps:
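CHO-K1 cells stably co-expressing human S1P1 (C-terminal Prolink tag) and EA-β-arrestin2 were grown in AssayComplete Media 6 at 37° C. and 5% CO2, plated, and incubated overnight. Agonist-driven inhibition of intracellular cAMP was read by TR-FRET with the HTRF cAMP HiRange kit on a PheraStar reader. Potency is pEC50, and efficacy (SPAN) is normalized to fingolimod.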
(Cyclic AMP is a second messenger, typically raised through Gs and lowered through Gi signalling.)
Target sequence in this assay (P21453 whole entry, looked up): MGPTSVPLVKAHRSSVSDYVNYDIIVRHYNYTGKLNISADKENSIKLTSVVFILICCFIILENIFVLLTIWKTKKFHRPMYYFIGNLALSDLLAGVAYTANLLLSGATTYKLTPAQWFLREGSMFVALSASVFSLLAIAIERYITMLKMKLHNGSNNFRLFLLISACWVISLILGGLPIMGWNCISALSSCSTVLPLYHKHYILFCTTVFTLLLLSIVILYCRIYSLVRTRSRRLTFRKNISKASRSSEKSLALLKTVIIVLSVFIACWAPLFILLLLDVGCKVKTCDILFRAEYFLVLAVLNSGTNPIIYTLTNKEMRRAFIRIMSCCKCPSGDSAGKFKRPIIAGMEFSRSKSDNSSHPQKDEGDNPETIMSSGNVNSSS

For test [2], the target named is T1, human sphingosine-1-phosphate receptor 1 (S1P1). The test can be described thus: β-Arrestin2 recruitment assay (PathHunter), S1P1 CHO-K1 cells. The format is cell-based. The settings on record: for Emax: CHO-K1, efficacy (SPAN) normalized to fingolimod, read-out: hS1P1 B-arrestin2 SPAN; for hS1P1 B-arrestin2 pEC50: β-arrestin2 recruitment, S1P1 CHO-K1 cells. An outline of the steps: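 Enzyme-fragment complementation read-out: agonist-driven β-arrestin2 binding to ProLink-tagged human S1P1 in stable CHO-K1 cells restores β-galactosidase, measured 1 h at room temperature after a 60 min 37° C. compound incubation. Potency as pEC50, efficacy relative to fingolimod (SPAN).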
Target sequence in this assay (P21453 whole entry, looked up): as above
Target sequence in this assay (P32121 whole entry partner, looked up): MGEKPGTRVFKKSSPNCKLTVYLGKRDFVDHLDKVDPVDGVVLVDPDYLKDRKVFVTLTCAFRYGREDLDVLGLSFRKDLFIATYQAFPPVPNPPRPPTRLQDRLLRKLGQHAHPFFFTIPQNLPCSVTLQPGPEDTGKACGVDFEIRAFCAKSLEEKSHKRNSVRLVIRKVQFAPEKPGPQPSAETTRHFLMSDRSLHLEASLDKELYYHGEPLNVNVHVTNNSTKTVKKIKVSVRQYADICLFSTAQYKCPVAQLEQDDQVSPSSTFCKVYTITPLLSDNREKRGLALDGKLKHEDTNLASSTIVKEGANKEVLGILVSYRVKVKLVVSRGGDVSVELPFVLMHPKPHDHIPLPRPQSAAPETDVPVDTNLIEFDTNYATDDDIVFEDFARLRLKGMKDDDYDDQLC
For orientation: Activated receptors often draw arrestin, which recruitment assays turn into a signal.

Bounds are passed on as bounds.

As to `CC(C)n1nnc2cc(-c3nc4c(Br)cccc4o3)ccc21` [Compound 428, 4-bromo-2-(1-isopropylbenzotriazol-5-yl)-1,3-benzoxazole], in test [1], the Emax was more than 75% and the “hS1P1 cAMP pEC50” value is less than 6.5. In addition, in test [2], the Emax was more than 75% and the “hS1P1 B-arrestin2 pEC50” value is given as less than 5.
`CC(C)n1nnc2cc(-c3nc4cccc(Br)c4o3)ccc21` [Compound 429, 7-bromo-2-(1-isopropyl-1H-benzo[d][1,2,3]triazol-5-yl)benzo[d]oxazole]: in test [1], the “hS1P1 cAMP pEC50” value is on record as less than 6.5. In addition, the “hS1P1 B-arrestin2 pEC50” value in test [2] is less than 5.
On the same counts, the results for `CCC1(CC)C/C(=N/O)c2cc(-c3nc(-c4cccnc4)no3)ccc2O1` [Compound 430, N-[(4Z)-2,2-diethyl-6-[3-(pyridin-3-yl)-1,2,4-oxadiazol-5-yl]-3,4-dihydro-2H-1-benzopyran-4-ylidene]hydroxylamine] are less than 6.5 and less than 5.
The corresponding values for `CCC1(CC)C/C(=N\O)c2cc(-c3nc(-c4cccnc4)no3)ccc2O1` [Compound 431, N-[(4E)-2,2-diethyl-6-[3-(pyridin-3-yl)-1,2,4-oxadiazol-5-yl]-3,4-dihydro-2H-1-benzopyran-4-ylidene]hydroxylamine] are less than 6.5 and less than 5.
Turning to `CC(C)n1nnc2cc(-c3nc(-c4ccccc4C(F)(F)F)co3)ccc21` [Compound 432, 1-(propan-2-yl)-5-{4-[2-(trifluoromethyl)phenyl]-1,3-oxazol-2-yl}-1H-1,2,3-benzotriazole], in test [1], the Emax was more than 75% and the “hS1P1 cAMP pEC50” value is more than 6.5. For the same compound, in test [2], the Emax is more than 75% and the “hS1P1 B-arrestin2 pEC50” value is more than 5.
On to `Cc1ccccc1-c1coc(-c2ccc3c(c2)nnn3C(C)C)n1` [Compound 433, 5-[4-(2-methylphenyl)-1,3-oxazol-2-yl]-1-(propan-2-yl)-1H-1,2,3-benzotriazole], for which, in test [1], the Emax was more than 75% and the “hS1P1 cAMP pEC50” value is listed as more than 6.5. Besides, in test [2], the Emax was more than 75% and the “hS1P1 B-arrestin2 pEC50” value was more than 5.
In the case of `CC(C)n1nnc2cc(-c3nc4c(o3)CCCc3ccccc3-4)ccc21` [Compound 434, 4-[1-(propan-2-yl)-1H-1,2,3-benzotriazol-5-yl]-5-oxa-3-azatricyclo[8.4.0.0^2,6]tetradeca-1(14),2(6),3,10,12-pentaene], in test [1], the Emax was less than 75% and the “hS1P1 cAMP pEC50” value is on record as less than 6.5. For the same compound, in test [2], the Emax was more than 75% and the “hS1P1 B-arrestin2 pEC50” value is on record as less than 5.
On the same counts, the results for `COc1cc(C)c2nc(-c3ccc4c(c3)nnn4C(C)C)oc2c1` [Compound 436, 2-(1-isopropyl-1H-benzo[d][1,2,3]triazol-5-yl)-6-methoxy-4-methylbenzo[d]oxazole] are more than 75%, more than 6.5, more than 75% and less than 5.
On the same counts, the results for `Cc1ccc2oc(-c3ccc4c(c3)nnn4CC(C)C)nc2c1` [Compound 437, 2-(1-isobutyl-1H-benzo[d][1,2,3]triazol-5-yl)-5-methylbenzo[d]oxazole] are more than 75%, more than 6.5, less than 75% and more than 5.
The corresponding values for `CC(C)n1nnc2cc(-c3nc(-c4ccccc4N)co3)ccc21` [Compound 438, 2-{2-[1-(propan-2-yl)-1H-1,2,3-benzotriazol-5-yl]-1,3-oxazol-4-yl}aniline] are more than 75%, more than 6.5, more than 75% and more than 5.
Take `Cc1ccncc1-c1noc(-c2ccc3c(c2)nnn3C2CCOCC2)n1` [Compound 439, 5-[3-(4-methylpyridin-3-yl)-1,2,4-oxadiazol-5-yl]-1-(oxan-4-yl)-1H-1,2,3-benzotriazole]: in test [1], the Emax was more than 75% and the “hS1P1 cAMP pEC50” value is recorded as less than 6.5. Moreover, in test [2], the Emax is more than 75% and the “hS1P1 B-arrestin2 pEC50” value is given as less than 5.
As to `N#Cc1cc(-c2nc(-c3ccc4sc(N)nc4c3)no2)ccc1NCC1CC1` [Compound 440, 5-(3-(2-aminobenzo[d]thiazol-5-yl)-1,2,4-oxadiazol-5-yl)-2-((cyclopropylmethyl)amino)benzonitrile], in test [1], the Emax was more than 75% and the “hS1P1 cAMP pEC50” value was more than 6.5. In test [2], the Emax is more than 75% and the “hS1P1 B-arrestin2 pEC50” value is listed as more than 5.
With `CC(C)Nc1ccc(-c2nc(-c3ccc4sc(N)nc4c3)no2)cc1C#N` [Compound 441, 5-(3-(2-aminobenzo[d]thiazol-5-yl)-1,2,4-oxadiazol-5-yl)-2-(isopropylamino)benzonitrile], in test [1], the Emax was more than 75% and the “hS1P1 cAMP pEC50” value is more than 6.5. In test [2], the Emax is more than 75% and the “hS1P1 B-arrestin2 pEC50” value is on record as more than 5.
In the case of `CCC1(CC)CC(=O)c2cc(-c3nc(-c4ccc5sc(N)nc5c4)no3)ccc2O1` [Compound 446, 6-(3-(2-aminobenzo[d]thiazol-5-yl)-1,2,4-oxadiazol-5-yl)-2,2-diethylchroman-4-one], in test [1], the Emax is less than 75% and the “hS1P1 cAMP pEC50” value is reported as less than 6.5. For the same compound, in test [2], the Emax was less than 75% and the “hS1P1 B-arrestin2 pEC50” value is less than 5.
Turning to `Cc1cccc2oc(-c3ccc4c(c3)nnn4CC(C)C)nc12` [Compound 447, 2-(1-isobutyl-1H-benzo[d][1,2,3]triazol-5-yl)-4-methylbenzo[d]oxazole], in test [1], the “hS1P1 cAMP pEC50” value was more than 6.5. In addition, the “hS1P1 B-arrestin2 pEC50” value in test [2] was more than 5.
On the same counts, the results for `Cc1ccc2nc(-c3ccc4c(c3)nnn4CC(C)C)oc2c1` [Compound 448, 2-(1-isobutyl-1H-benzo[d][1,2,3]triazol-5-yl)-6-methylbenzo[d]oxazole] are less than 6.5 and less than 5.
The corresponding values for `Cc1cccc2nc(-c3ccc4c(c3)nnn4CC(C)C)oc12` [Compound 449, 2-(1-isobutyl-1H-benzo[d][1,2,3]triazol-5-yl)-7-methylbenzo[d]oxazole] are less than 6.5 and less than 5.
Turning to `COc1cccc2oc(-c3ccc4c(c3)nnn4CC(C)C)nc12` [Compound 450, 2-(1-isobutyl-1H-benzo[d][1,2,3]triazol-5-yl)-4-methoxybenzo[d]oxazole], in test [1], the Emax is more than 75% and the “hS1P1 cAMP pEC50” value is reported as more than 6.5. For the same compound, in test [2], the Emax was more than 75% and the “hS1P1 B-arrestin2 pEC50” value is given as more than 5.
Turning to `COc1ccc2oc(-c3ccc4c(c3)nnn4CC(C)C)nc2c1` [Compound 451, 2-(1-isobutyl-1H-benzo[d][1,2,3]triazol-5-yl)-5-methoxybenzo[d]oxazole], in test [1], the Emax was less than 75% and the “hS1P1 cAMP pEC50” value is more than 6.5. In addition, in test [2], the Emax was less than 75% and the “hS1P1 B-arrestin2 pEC50” value is listed as more than 5.
Consider `COc1ccc2nc(-c3ccc4c(c3)nnn4CC(C)C)oc2c1` [Compound 452, 2-(1-isobutyl-1H-benzo[d][1,2,3]triazol-5-yl)-6-methoxybenzo[d]oxazole], for which, in test [1], the Emax was more than 75% and the “hS1P1 cAMP pEC50” value is given as less than 6.5. Moreover, in test [2], the Emax is less than 75% and the “hS1P1 B-arrestin2 pEC50” value is reported as more than 5.
For the compound `CC(C)Cn1nnc2cc(-c3nc4c(Cl)cccc4o3)ccc21` [Compound 453, 4-chloro-2-(1-isobutyl-1H-benzo[d][1,2,3]triazol-5-yl)benzo[d]oxazole], in test [1], the “hS1P1 cAMP pEC50” value is more than 6.5. Also, the “hS1P1 B-arrestin2 pEC50” value in test [2] is on record as more than 5.
Turning to `CC(C)Cn1nnc2cc(-c3nc4cccc(Br)c4o3)ccc21` [Compound 454, 7-bromo-2-(1-isobutyl-1H-benzo[d][1,2,3]triazol-5-yl)benzo[d]oxazole], the “hS1P1 cAMP pEC50” value in test [1] is listed as more than 6.5. Also, the “hS1P1 B-arrestin2 pEC50” value in test [2] is on record as more than 5.
In the case of `CC(C)n1nnc2cc(-c3nc4c(o3)CCc3sccc3-4)ccc21` [Compound 456, 4-[1-(propan-2-yl)-1H-1,2,3-benzotriazol-5-yl]-5-oxa-10-thia-3-azatricyclo[7.3.0.0^2,6]dodeca-1(9),2(6),3,11-tetraene], in test [1], the Emax was more than 75% and the “hS1P1 cAMP pEC50” value is recorded as more than 6.5. Also, in test [2], the Emax is more than 75% and the “hS1P1 B-arrestin2 pEC50” value is recorded as less than 5.
Turning to `CC(C)n1nnc2cc(-c3nc4c(ccc5sccc54)o3)ccc21` [Compound 457, 4-[1-(propan-2-yl)-1H-1,2,3-benzotriazol-5-yl]-5-oxa-10-thia-3-azatricyclo[7.3.0.0^2,6]dodeca-1(9),2(6),3,7,11-pentaene], in test [1], the Emax was more than 75% and the “hS1P1 cAMP pEC50” value was more than 6.5. In addition, in test [2], the Emax was more than 75% and the “hS1P1 B-arrestin2 pEC50” value is less than 5.
Consider `CC(=O)Nc1ccccc1-c1coc(-c2ccc3c(c2)nnn3C(C)C)n1` [Compound 458, N-(2-{2-[1-(propan-2-yl)-1H-1,2,3-benzotriazol-5-yl]-1,3-oxazol-4-yl}phenyl)acetamide], for which, in test [1], the Emax was less than 75% and the “hS1P1 cAMP pEC50” value was less than 6.5. In test [2], the Emax was less than 75% and the “hS1P1 B-arrestin2 pEC50” value is given as less than 5.
In the case of `CC(C)n1nnc2cc(-c3nc(-c4cccs4)co3)ccc21` [Compound 459, 1-(propan-2-yl)-5-[4-(thiophen-2-yl)-1,3-oxazol-2-yl]-1H-1,2,3-benzotriazole], in test [1], the Emax is more than 75% and the “hS1P1 cAMP pEC50” value is reported as less than 6.5. In addition, in test [2], the Emax was more than 75% and the “hS1P1 B-arrestin2 pEC50” value is listed as less than 5.
